In US7750150B2, “Process for producing acid adduct salt of polyacidic base compound” (Kowa Co., Ltd., priority 2003, dated 2010):
Like-named read-outs stand apart in the source and are kept apart here.

Columns and labels:
[1] = Hygroscopicity (weight change on storage at 25° C. and 83% relative humidity); format: physicochemical; conditions: weight change after 4 days at 25° C. and 83% relative humidity
Protocol: (§1) A weight change of each acid addition salt was measured after storing it for 4 days under conditions of 25° C. and 83% relative humidity. • TG: Thermogravimetric Analysis • DSC: Differential Scanning Calorimetry

pH of aqueous solution = format: physicochemical
[2] = TG (thermogravimetric analysis); format: physicochemical; conditions: weight change on heating
From the text: (§2) A powder X-ray diffraction pattern of 2-[4-[2-(benzimidazol-2-ylthio)ethyl]piperazin-1-yl]-N-[2,4-bis(methylthio)-6-methyl-3-pyridyl]acetamide monohydrochloride 0.9-water adduct is illustrated in FIG. 1, and the results of its TG (thermogravimetric analysis)-DSC (differential scanning calorimetry) measurements are shown in FIG. 2. Further, a powder X-ray diffraction pattern of 2-[4-[2-(benzimidazol-2-ylthio)ethyl]piperazin-1-yl]-N-[2,4-bis(methylthio)-6-methyl-3-pyridyl]acetamide tetrahydrochloride 2-water adduct is illustrated in FIG. 3, and the results of its TG-DSC measurements are shown in FIG. 4. A powder X-ray diffraction pattern of 2-[4-[2-(benzimidazol-2-ylthio)ethyl]piperazin-1-yl]-N-[2,4-bis(methylthio)-6-methyl-3-pyridyl]acetamide disulfate 1.5-water adduct is illustrated in FIG. 5, and the results of its TG-DSC measurements are shown in FIG. 6. A powder X-ray diffraction pattern of 2-[4-[2-(benzimidazol-2-ylthio)ethyl]piperazin-1-yl]-N-[2,4-bis(methylthio)-6-methyl-3-pyridyl]acetamide monosulfate 4-water adduct is illustrated in FIG. 7, and the results of its TG-DSC measurements are shown in FIG. 8. A powder X-ray diffraction pattern of 2-[4-[2-(benzimidazol-2-ylthio)ethyl]piperazin-1-yl]-N-[2,4-bis(methylthio)-6-methyl-3-pyridyl]acetamide monosulfate is illustrated in FIG. 9, and the results of its TG-DSC measurements are shown in FIG. 10. A powder X-ray diffraction pattern of 2-[4-[2-(benzimidazol-2-ylthio)ethyl]piperazin-1-yl]-N-[2,4-bis(methylthio)-6-methyl-3-pyridyl]acetamide dimaleate is illustrated in FIG. 11, and the results of its TG-DSC measurements are shown in FIG. 12.
as §1

[3] = Thermal stability (HPLC purity after storage relative to before storage); format: physicochemical
Protocol: (Note) Thermal Stability:
The purity of each acid addition salt of the polyacidic basic compound stored at 80° C. for 10 days was determined by HPLC measurement relative to its purity before the storage with the proviso that the disulfate 1.5-water adduct and the dimaleate were stored at 60° C. for 7 days before their storage at 80° C. for 10 days.

[4] = Solubility of the acid addition salts; conditions: for water solubility: statement in words, background art
[5] = Powder X-ray diffraction (degree of crystallinity); format: physicochemical
From the text: as §2

Oral absorption = format: in vivo; conditions: statement in words, background art
[6] = stored at 60° C. for 7 days before storage at 80° C. for 10 days
[7] = listed as tetrahydrochloride 2-water adduct
[8] = listed as 2-[4-[2-(benzimidazol-2-ylthio)ethyl]piperazin-1-yl]-N-[2,4-bis(methylthio)-6-me

Hygroscopicity [1]	TG [2]	Thermal stability ([3]; stored at 80° C. for 10 days) [%]	Solubility [4] [mg/mL]	Powder X-ray [5]	pH of 1% aq. Solution (pH of aqueous solution)	Structure (SMILES)	further results
None	Decreased 10%	99.4	5			CSc1cc(C)nc(SC)c1NC(=O)CN1CCN(CCSc2nc3ccccc3[nH]2)CC1.O.O.O.O.O=S(=O)(O)O [Monosulfate 4-water adduct, 2-[4-[2-(benzimidazol-2-ylthio)ethyl]piperazin-1-yl]-N-[2,4-bis(methylthio)-6-methyl-3-pyridyl]acetamide monosulfate 4-water adduct]	pH of aq. Solution (pH of aqueous solution; 0.5% aq. solution): 3.2 (0.5%)
10%	No change until		>1000	Low	2.00	CSc1cc(C)nc(SC)c1NC(=O)CN1CCN(CCSc2nc3ccccc3[nH]2)CC1.CSc1cc(C)nc(SC)c1NC(=O)CN1CCN(CCSc2nc3ccccc3[nH]2)CC1.O.O.O.O=S(=O)(O)O.O=S(=O)(O)O.O=S(=O)(O)O.O=S(=O)(O)O [Disulfate 1.5-water adduct, 2-[4-[2-(benzimidazol-2-ylthio)ethyl]piperazin-1-yl]-N-[2,4-bis(methylthio)-6-methyl-3-pyridyl]acetamide disulfate 1.5-water adduct]	Thermal stability [3, 6]: 99.6%
2%				Low	2.62	CSc1cc(C)nc(SC)c1NC(=O)CN1CCN(CCSc2nc3ccccc3[nH]2)CC1.O=C(O)/C=C\C(=O)O.O=C(O)/C=C\C(=O)O [Dimaleate, 2-[4-[2-(benzimidazol-2-ylthio)ethyl]piperazin-1-yl]-N-[2,4-bis(methylthio)-6-methyl-3-pyridyl]acetamide dimaleate]	Solubility (physchem): 15 mg/mL; Thermal stability [3, 6]: 93.1%
						CSc1cc(C)nc(SC)c1NC(=O)CN1CCN(CCSc2nc3ccccc3[nH]2)CC1 [2-[4-[2-(benzimidazol-2-ylthio)ethyl]piperazin-1-yl]-N-[2,4-bis(methylthio)-6-methyl-3-pyridyl]acetamide]	oral absorption (Oral absorption): little well; water solubility [4]: too low
10%	Gradual removal	98.5	>1000	Low	1.97	CSc1cc(C)nc(SC)c1NC(=O)CN1CCN(CCSc2nc3ccccc3[nH]2)CC1.Cl.Cl.Cl.Cl.O.O [Tetrahydrochloride 2-water adduct, 2-[4-[2-(benzimidazol-2-ylthio)ethyl]piperazin-1-yl]-N-[2,4-bis(methylthio)-6-methyl-3-pyridyl]acetamide tetrahydrochloride 2-water adduct]	Hygroscopicity [1, 7]: high hygroscopicity; oral absorption (Oral absorption): substantially improved; Powder X-ray [5, 7]: low degree of crystallinity; water solubility [4]: substantially improved
15%	No change until		200	Low		CSc1cc(C)nc(SC)c1NC(=O)CN1CCN(CCSc2nc3ccccc3[nH]2)CC1.O=S(=O)(O)O [Monosulfate, 2-[4-[2-(benzimidazol-2-ylthio)ethyl]piperazin-1-yl]-N-[2,4-bis(methylthio)-6-methyl-3-pyridyl]acetamide monosulfate]	pH of aq. Solution (pH of aqueous solution; 0.5% aq. solution): 3.2 (0.5%)
None	No change until	99.2	0.5			CSc1cc(C)nc(SC)c1NC(=O)CN1CCN(CCSc2nc3ccccc3[nH]2)CC1.Cl.O [Monohydrochloride 0.9-water adduct, 2-[4-[2-(benzimidazol-2-ylthio)ethyl]piperazin-1-yl]-N-[2,4-bis(methylthio)-6-methyl-3-pyridyl]acetamide monohydrochloride 0.9-water adduct]	Hygroscopicity [1, 8]: no hygroscopicity; Powder X-ray [5, 8]: high degree of crystallinity; pH of aq. Solution (pH of aqueous solution; 0.05% aq. solution): 5.2 (0.05%); TG [2, 8]: without any substantial weight change; Thermal stability ([3]; stored at 80° C. for 10 days, listed as 2-[4-[2-(benzimidazol-2-ylthio)ethyl]piperazin-1-yl]-N-[2,4-bis(methylthio)-6-me): excellent in thermal stability
						Cc1cc(OCC(F)(F)F)c(NC(=O)CN2CCN(CCSc3nc4cc(F)c(F)cc4[nH]3)CC2)c(OCC(F)(F)F)n1.Cl	melting point: 186 to 187 °C
